Assay results as given in patent US20120110703A1, “PROTEIN HAVING NOVEL PRENYLT[…] AND GENE ENCODING THE SAME” (KIRIN HOLDINGS KABUSHIKI KAISHA, priority 2009, published 2012).

How the values were obtained:
H1PT1 prenyltransferase = biological target: T1, H1PT1 prenyltransferase (Humulus lupulus, UniProt A0A0B4ZTQ2); experiment: Prenyltransferase activity of recombinant H1PT1 (yeast microsome fraction), LC-MS analysis of products; format: biochemical; conditions: for activity of transferring a prenyl group to substrate (substrate specificity): geranyl diphosphate as prenyl group donor, LCMS-IT-TOF, FIGS. 6 and 7
T1 construct: made in house; host or cells: Saccharomyces cerevisiae W303-1A-Δcoq2 (microsome fraction)
T1 sequence (A0A0B4ZTQ2 47-408): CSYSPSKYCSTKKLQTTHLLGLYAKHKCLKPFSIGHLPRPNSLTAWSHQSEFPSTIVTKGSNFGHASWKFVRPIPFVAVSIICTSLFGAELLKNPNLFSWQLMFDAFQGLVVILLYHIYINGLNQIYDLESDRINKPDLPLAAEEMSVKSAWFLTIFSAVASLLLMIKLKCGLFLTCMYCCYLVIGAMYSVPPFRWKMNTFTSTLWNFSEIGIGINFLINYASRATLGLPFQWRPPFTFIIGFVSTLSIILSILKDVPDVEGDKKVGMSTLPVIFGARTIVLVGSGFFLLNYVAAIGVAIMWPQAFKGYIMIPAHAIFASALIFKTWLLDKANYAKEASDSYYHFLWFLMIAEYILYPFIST
Method: (§1) The enzyme of the present invention (340 μg to 730 μg), a substrate aromatic compound (1 mM) such as flavonoid, a prenyl group donor (1 mM), and MgCl2 (20 mM) are mixed in a 100 mM Tris-HCl buffer (pH 7.5) to bring the amount of the resultant to 200 μl, and the reaction is allowed to proceed at 30° C. overnight. After the completion of the reaction, the product is extracted with ethyl acetate, dried, and dissolved in MeOH. The resultant may be analyzed using a mass spectrometer or via chromatography.
Cloned plasmids (pDR196-H1PT1 and pDR196-H1PT2) comprising each full-length sequence of the two gene clusters (H1PT1 and H1PT2) were introduced into the yeast strain (W303-1A-Δcoq2) by the lithium acetate method. Culture was conducted in 180 ml of SD-Ura liquid medium up to the logarithmic growth phase to express recombinant proteins in yeast transformants, and microsome fractions were prepared therefrom using the method of Yazaki et al. (JBC, 2002, 277, 6240-6246). The total amount of the reaction solution was adjusted to 200 μl by mixing 340 μg to 730 μg of proteins from the microsome fractions, flavonoid (1 mM), a prenyl group donor (1 mM), 20 mM MgCl2, and 100 mM Tris-HCl buffer (pH 7.5), and the reaction was allowed to proceed at 30° C. overnight. After the completion of the reaction, the product was extracted with ethyl acetate, dried, and dissolved in methanol (MeOH). The resultant was analyzed using Shimadzu LCMS-2010A and LCMS-IT-TOF (Shimadzu Corporation), TSK-GEL ODS-80Ts 2.0 mm×25 cm (TOSOH), and a solvent system (0.3% formic acid:acetonitrile=3:7) at a flow rate of 0.2 ml/min−1. […] These compounds had not been prepared via the heterologous expression system with the use of a plant-derived gene in the past. 6-Geranylnaringenin (peak c in FIG. 4) was compared with a standard sample (provided by Associate professor Tomohisa Kuzuyama, the University of Tokyo), and the same retention time and identical fragments were observed (FIG. 5). Thus, novel prenyltransferase (i.e., H1PT1 full-length: 1,224 bp, ORF: […].; H1PT2 full-length: 1,233 bp, ORF: 411 a.a.) was obtained. The amino acid sequences of proteins encoded by H1PT1 and H1PT2 are shown in SEQ ID NOs: 1 and 2, respectively. The nucleotide sequences of H1PT1 and H1PT2 are shown in SEQ ID NOs: 3 and 4, respectively. […] Thus, H1PT1 was mainly subjected to analysis as described below; however, it was also possible to analyze H1PT2 in the same manner.
The Sophora flavescens gene (JP Patent Publication (Kokai) No. 2008-220304 A) and the soybean gene (Akashi et al., Plant Physiology 149: 683-693, 2009), which are already known, are known to encode enzymes that interact with limited substrates with very high specificity. The enzymatic properties of recombinant H1PT1 were analyzed using LCMS-IT-TOF. Geranyl diphosphate was used as a prenyl group donor for prenylation of various flavonoid-associated compounds (e.g., isoliquiritigenin, sakuranetin, taxifolin, or genistein).

H1PT2 prenyltransferase = biological target: T2, H1PT2 prenyltransferase (Humulus lupulus, UniProt E5RP65); experiment: Prenyltransferase activity of recombinant H1PT2 (yeast microsome fraction), LC-MS analysis of products; format: biochemical; conditions: flavonoid 1 mM, geranyl diphosphate 1 mM as prenyl group donor, 20 mM MgCl2, pH 7.5, 30° C. overnight; FIG. 4
T2 construct: made in house; host or cells: Saccharomyces cerevisiae W303-1A-Δcoq2 (microsome fraction)
T2 sequence (E5RP65 92-411): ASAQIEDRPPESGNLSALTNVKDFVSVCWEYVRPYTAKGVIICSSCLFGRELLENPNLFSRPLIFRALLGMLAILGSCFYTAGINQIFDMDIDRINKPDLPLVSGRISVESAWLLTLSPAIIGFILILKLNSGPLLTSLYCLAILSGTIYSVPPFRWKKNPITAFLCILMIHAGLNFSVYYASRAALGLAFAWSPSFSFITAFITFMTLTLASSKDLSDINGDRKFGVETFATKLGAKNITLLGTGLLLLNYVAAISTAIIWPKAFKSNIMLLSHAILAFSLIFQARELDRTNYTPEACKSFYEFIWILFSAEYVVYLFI
Method: as §1
Cloned plasmids (pDR196-H1PT1 and pDR196-H1PT2) comprising each full-length sequence of the two gene clusters (H1PT1 and H1PT2) were introduced into the yeast strain (W303-1A-Δcoq2) by the lithium acetate method. Culture was conducted in 180 ml of SD-Ura liquid medium up to the logarithmic growth phase to express recombinant proteins in yeast transformants, and microsome fractions were prepared therefrom using the method of Yazaki et al. (JBC, 2002, 277, 6240-6246). […] The resultant was analyzed using Shimadzu LCMS-2010A and LCMS-IT-TOF (Shimadzu Corporation), TSK-GEL ODS-80Ts 2.0 mm×25 cm (TOSOH), and a solvent system (0.3% formic acid:acetonitrile=3:7) at a flow rate of 0.2 ml/min−1. […]

Compound | activity of transferring a prenyl group to substrate (substrate specificity) (H1PT1 prenyltransferase) | prenylated products from substrate (H1PT2 prenyltransferase) | prenylated products from substrate (H1PT1 prenyltransferase; flavonoid 1 mM, geranyl diphosphate 1 mM as prenyl group donor, 20 mM MgCl2, pH 7.5, 30° C. overnight, FIG. 4)
O=c1c(-c2ccc(O)cc2)coc2cc(O)cc(O)c12 [genistein] | activity of transferring a prenyl group to all substrates was observed | – | –
O=C(/C=C/c1ccc(O)cc1)c1ccc(O)cc1O [isoliquiritigenin] | activity of transferring a prenyl group to all substrates was observed | – | –
O=C1C[C@@H](c2ccc(O)cc2)Oc2cc(O)cc(O)c21 [naringenin] | – | a compound into which prenyl had been introduced at position 6 and a compound into which prenyl was deduced to have been introduced at position 8 or 3′ were detected | a compound into which prenyl had been introduced at position 6 and a compound into which prenyl was deduced to have been introduced at position 8 or 3′ were detected
COc1cc(O)c2c(c1)O[C@H](c1ccc(O)cc1)CC2=O [sakuranetin] | activity of transferring a prenyl group to all substrates was observed | – | –
O=C1c2c(O)cc(O)cc2O[C@H](c2ccc(O)c(O)c2)[C@H]1O [taxifolin] | activity of transferring a prenyl group to all substrates was observed | – | –
